Results from ChEMBL document CHEMBL5550160, “Leveraging a rationally designed veliparib-based anilide eliciting anti-leukemic effects for the design of pH-responsive polymer nanoformulation” (Eur J Med Chem, 2024).

Tests used:
Histone deacetylase 3 = Histone deacetylase 3 (Homo sapiens, UniProt O15379); assay: Inhibition of HDAC3 (unknown origin) using p53 residues 379 to 382 [RHKK(Ac)] as fluorogenic substrate assessed as residual activity at 1.23 x 10^-7M (reference value: 103.08%); details: dose 1.23 10^-7M
Histone deacetylase 1 [1] = target: T1, Histone deacetylase 1 (Homo sapiens, UniProt Q13547); assay: Inhibition of HDAC1 (unknown origin) using p53 residues 379 to 382 [RHKK(Ac)] as fluorogenic substrate assessed as residual activity at 5.08 x 10^-10M (reference value: 98.06%); details: dose 5.08 10^-10M
[2] = target: Histone deacetylase 9 (Homo sapiens) (UniProt Q9UKV0); assay: Inhibition of HDAC9 (unknown origin) assessed as residual activity at 3.70 x 10^-7M (reference value: 97.55%); details: dose 3.7 10^-7M
[3] = target: T2, Histone deacetylase 8 (Homo sapiens) (UniProt Q9BY41); assay: Inhibition of HDAC8 (unknown origin) assessed as residual activity at 1.52 x 10^-9M (reference value: 100%); details: dose 1.52 10^-9M
T2 sequence (whole entry): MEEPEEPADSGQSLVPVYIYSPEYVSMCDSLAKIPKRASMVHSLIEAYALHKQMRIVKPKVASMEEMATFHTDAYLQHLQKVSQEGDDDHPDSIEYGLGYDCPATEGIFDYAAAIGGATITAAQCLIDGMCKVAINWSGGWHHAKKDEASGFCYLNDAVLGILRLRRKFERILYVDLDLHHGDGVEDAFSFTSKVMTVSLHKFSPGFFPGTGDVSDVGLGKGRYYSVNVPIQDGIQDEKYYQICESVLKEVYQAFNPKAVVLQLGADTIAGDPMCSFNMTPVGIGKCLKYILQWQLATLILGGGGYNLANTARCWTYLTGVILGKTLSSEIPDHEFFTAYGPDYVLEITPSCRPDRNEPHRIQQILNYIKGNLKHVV

PC-3 = assay: cells; format: functional, cell-based; details: Homo sapiens
Description: Antiproliferative activity against human PC-3 cells assessed as inhibition of cell growth by MTT assay

[4] = target: Histone deacetylase 5 (Homo sapiens) (UniProt Q9UQL6); assay: Inhibition of HDAC5 (unknown origin) assessed as residual activity at 4.57 x 10^-9M (reference value: 100%); details: dose 4.57 10^-9M
[5] = target: T2, Histone deacetylase 8 (Homo sapiens); assay: Inhibition of HDAC8 (unknown origin) assessed as residual activity at 4.57 x 10^-9M (reference value: 100%); details: dose 4.57 10^-9M
Histone deacetylase 1 [6] = target: T1, Histone deacetylase 1; assay: Inhibition of HDAC1 (unknown origin) using p53 residues 379 to 382 [RHKK(Ac)] as fluorogenic substrate assessed as residual activity at 1.11 x 10^-6M (reference value: 98.06%); details: dose 1.11 10^-6M
[7] = target: Histone deacetylase 5 (Homo sapiens) (UniProt Q9UQL6); assay: Inhibition of HDAC5 (unknown origin) assessed as residual activity at 3.70 x 10^-7M (reference value: 100%); details: dose 3.7 10^-7M
SiHa = assay: cells; format: functional, cell-based; details: Homo sapiens
Description: Antiproliferative activity against human SiHa cells assessed as inhibition of cell growth by MTT assay

[8] = target: T3, Protein deacetylase HDAC6 (Homo sapiens) (UniProt Q9UBN7); assay: Inhibition of HDAC6 (unknown origin) using p53 residues 379 to 382 [RHKK(Ac)] as fluorogenic substrate assessed as residual activity at 4.57 x 10^-9M (reference value: 101.06%); details: dose 4.57 10^-9M
T3 sequence (whole entry): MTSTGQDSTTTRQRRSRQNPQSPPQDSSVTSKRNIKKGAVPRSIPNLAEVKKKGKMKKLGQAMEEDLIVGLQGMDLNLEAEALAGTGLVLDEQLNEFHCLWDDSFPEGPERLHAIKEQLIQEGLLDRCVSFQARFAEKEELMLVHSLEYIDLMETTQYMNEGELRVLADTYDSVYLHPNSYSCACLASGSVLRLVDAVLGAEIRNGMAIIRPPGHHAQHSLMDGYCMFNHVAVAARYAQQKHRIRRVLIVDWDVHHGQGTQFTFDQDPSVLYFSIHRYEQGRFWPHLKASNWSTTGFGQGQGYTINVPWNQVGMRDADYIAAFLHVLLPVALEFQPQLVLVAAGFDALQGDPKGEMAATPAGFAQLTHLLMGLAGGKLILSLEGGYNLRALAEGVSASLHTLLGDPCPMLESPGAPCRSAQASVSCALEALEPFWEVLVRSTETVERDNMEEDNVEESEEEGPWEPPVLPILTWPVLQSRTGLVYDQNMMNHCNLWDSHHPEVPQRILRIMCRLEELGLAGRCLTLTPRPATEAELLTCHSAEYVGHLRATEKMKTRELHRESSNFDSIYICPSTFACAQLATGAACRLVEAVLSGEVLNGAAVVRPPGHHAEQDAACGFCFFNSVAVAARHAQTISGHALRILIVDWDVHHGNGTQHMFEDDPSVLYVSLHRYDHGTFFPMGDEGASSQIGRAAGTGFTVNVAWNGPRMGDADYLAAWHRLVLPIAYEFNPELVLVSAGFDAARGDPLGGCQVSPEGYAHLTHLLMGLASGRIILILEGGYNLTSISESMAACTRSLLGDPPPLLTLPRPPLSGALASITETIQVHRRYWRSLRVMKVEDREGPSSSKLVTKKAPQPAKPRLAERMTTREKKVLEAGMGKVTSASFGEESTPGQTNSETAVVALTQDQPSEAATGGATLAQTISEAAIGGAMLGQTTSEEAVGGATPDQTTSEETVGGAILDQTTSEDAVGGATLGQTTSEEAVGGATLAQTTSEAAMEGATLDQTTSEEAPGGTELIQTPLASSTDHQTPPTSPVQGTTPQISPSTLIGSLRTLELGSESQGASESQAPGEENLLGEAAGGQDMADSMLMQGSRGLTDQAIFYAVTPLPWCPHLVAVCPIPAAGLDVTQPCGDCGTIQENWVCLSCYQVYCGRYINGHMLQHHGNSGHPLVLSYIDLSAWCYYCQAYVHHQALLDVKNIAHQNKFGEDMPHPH

T1 sequence (Q13547 whole entry, the tested form may be a part): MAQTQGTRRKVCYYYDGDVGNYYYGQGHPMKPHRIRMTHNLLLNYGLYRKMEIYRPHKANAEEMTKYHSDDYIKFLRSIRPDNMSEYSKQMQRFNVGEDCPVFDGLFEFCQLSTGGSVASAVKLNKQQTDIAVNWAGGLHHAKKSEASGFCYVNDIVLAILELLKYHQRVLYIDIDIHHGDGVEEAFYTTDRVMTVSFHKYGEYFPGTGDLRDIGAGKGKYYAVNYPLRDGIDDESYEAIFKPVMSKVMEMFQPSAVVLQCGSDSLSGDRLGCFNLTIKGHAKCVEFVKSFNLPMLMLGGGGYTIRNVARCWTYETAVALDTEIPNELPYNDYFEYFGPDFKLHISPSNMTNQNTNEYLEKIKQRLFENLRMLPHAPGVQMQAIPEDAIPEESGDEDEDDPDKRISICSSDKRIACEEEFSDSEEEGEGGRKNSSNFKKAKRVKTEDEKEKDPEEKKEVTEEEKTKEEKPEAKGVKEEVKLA
Sequence of Histone deacetylase 5 (Homo sapiens) (Q9UQL6 whole entry): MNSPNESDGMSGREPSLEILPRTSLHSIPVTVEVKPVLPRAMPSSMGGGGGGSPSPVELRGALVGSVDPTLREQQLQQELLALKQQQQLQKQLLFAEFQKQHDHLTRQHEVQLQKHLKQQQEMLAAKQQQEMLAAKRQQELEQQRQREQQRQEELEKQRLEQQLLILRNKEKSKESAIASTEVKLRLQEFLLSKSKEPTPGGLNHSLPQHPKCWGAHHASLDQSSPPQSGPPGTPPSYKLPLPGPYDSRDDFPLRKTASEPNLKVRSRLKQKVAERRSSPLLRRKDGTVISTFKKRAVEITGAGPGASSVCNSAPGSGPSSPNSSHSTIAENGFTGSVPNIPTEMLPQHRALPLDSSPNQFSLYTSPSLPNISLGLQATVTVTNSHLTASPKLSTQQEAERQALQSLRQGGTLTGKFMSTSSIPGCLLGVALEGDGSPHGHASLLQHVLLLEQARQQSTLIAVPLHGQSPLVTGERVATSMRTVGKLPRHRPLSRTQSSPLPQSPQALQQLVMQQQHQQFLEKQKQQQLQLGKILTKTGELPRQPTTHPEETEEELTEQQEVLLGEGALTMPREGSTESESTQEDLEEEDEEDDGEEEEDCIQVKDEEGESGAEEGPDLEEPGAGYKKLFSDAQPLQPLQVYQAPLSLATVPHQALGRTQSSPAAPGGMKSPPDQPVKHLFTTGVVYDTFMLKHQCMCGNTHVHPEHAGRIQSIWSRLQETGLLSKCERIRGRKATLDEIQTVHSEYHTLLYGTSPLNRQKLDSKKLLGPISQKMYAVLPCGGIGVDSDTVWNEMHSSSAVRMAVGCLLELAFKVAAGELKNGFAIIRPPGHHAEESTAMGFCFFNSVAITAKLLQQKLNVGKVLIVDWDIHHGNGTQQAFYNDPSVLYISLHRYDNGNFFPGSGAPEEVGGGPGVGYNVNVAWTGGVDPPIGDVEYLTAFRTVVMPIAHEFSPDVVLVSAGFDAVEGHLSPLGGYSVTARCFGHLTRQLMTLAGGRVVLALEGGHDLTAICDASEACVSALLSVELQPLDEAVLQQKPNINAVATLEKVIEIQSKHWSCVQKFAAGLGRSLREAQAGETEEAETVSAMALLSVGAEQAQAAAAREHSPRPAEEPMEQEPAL
Sequence of Histone deacetylase 9 (Homo sapiens) (Q9UKV0 whole entry): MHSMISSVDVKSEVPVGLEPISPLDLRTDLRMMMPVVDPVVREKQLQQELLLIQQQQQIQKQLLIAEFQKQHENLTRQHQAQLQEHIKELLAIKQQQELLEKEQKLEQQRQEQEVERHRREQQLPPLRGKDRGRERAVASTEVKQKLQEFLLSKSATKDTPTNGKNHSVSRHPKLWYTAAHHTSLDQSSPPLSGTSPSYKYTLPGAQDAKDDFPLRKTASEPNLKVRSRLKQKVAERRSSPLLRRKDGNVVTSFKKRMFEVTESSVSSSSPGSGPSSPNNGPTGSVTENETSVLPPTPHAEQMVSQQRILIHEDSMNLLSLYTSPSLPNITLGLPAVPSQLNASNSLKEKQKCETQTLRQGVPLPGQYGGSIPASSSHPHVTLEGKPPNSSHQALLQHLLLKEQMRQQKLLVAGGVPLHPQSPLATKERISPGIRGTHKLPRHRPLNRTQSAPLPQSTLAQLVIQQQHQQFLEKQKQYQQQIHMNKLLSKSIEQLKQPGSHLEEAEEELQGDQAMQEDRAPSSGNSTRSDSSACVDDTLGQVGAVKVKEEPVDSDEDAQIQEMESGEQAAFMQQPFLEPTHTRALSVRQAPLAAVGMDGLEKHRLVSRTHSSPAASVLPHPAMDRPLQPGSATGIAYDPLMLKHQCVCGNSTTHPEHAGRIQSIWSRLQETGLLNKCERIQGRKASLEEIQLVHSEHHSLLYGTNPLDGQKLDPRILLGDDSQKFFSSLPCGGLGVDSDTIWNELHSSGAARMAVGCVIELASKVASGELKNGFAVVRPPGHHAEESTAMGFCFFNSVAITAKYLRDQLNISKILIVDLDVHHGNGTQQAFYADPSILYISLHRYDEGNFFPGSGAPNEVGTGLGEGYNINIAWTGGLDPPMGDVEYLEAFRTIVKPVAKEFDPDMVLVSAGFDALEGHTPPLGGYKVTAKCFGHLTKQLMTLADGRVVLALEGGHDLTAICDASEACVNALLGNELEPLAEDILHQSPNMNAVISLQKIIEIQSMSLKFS
Sequence of Histone deacetylase 3 (O15379 whole entry, the tested form may be a part): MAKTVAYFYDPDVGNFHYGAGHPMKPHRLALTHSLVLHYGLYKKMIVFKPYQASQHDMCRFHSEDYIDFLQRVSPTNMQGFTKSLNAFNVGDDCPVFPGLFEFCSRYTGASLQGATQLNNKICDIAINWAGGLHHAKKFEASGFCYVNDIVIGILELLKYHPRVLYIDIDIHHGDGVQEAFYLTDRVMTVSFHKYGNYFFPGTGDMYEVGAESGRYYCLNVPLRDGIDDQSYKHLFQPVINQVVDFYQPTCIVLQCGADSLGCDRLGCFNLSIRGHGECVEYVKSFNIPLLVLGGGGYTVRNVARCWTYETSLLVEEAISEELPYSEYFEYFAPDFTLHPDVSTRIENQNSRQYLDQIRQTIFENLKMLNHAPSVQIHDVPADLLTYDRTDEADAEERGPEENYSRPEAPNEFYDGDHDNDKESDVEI

- Activity (Histone deacetylase 3): 84.1%
- Activity (Histone deacetylase 1 [1]): 93.5%
- Activity [2]: 92.6%
- Activity [3]: 103%
- IC50 (PC-3): 4.01 µM
- Activity [4]: 82.1%
- Activity [5]: 103%
- Activity (Histone deacetylase 1 [6]): 11%
- Activity [7]: 77.6%
- IC50 (SiHa): > 10 µM
- Activity [8]: 103%
SMILES: NC(=O)c1cccc2[nH]c(-c3ccc(NCc4ccc(C(=O)Nc5ccccc5N)cc4)cc3)nc12
